Legend:
Type in all cases: in vivo
[1] = system: Masked chafer (Cyclocephala spp., CYCCSP); assay: Turf trial against masked chafer grubs (Kentucky Bluegrass, natural infestation), larvae counts; settings: for % Control / % activity: alpha-cypermethrin 95, dinotefuran 600, combination 95 + 380 g ai/ha; for Masked Chafer Grub Counts (average per treatment per sample, per 1 sq. ft.): 62 days after treatment, alpha-cypermethrin 95, dinotefuran 600, combination 95 + 380 g ai/hectare
Experimental: (§1) Synergism can be described as an interaction where the combined effect of two or more compounds is greater than the sum of the individual effects of each of the compounds. The presence of a synergistic effect in terms of percent control, between two mixing partners (X and Y) can be calculated using the Colby equation (Colby, S. R., 1967, Calculating Synergistic and Antagonistic Responses in Herbicide Combinations, Weeds, 15, 20-22):
The trial was conducted with Kentucky Bluegrass as main turf variety, with a natural infestation of masked chafer grubs. Treatments were arranged in a randomized complete block design and replicated four times in plots measuring 24 ft^2.
Treatments were applied in 813 liter/hectare spray volume.
White grub control was determined by larvae counts 62 days after treatment. A sod cutter cut a strip down the center of each replicate and a shovel cut the stirp into a small square in the middle of each plot. The number of larvae in each 1 sq. ft. were counted.

[2] = system: Fall armyworm, Spodoptera frugiperda (LAPHFR); assay: Fall armyworm feeding damage on creeping bentgrass fairway; settings: for % Reduction / % activity: alpha-cypermethrin 95, dinotefuran 600, combination 95 + 380 g ai/ha; for Fall Armyworm damage (%) (average feeding damage): five days after treatment, two applications, alpha-cypermethrin 95, dinotefuran 600, combination 95 + 380 g ai/hectare
Excerpt: as §1
A trial was established on a mature ‘L-93’ creeping bentgrass fairway. An initial application was made with a repeat application 8 days later. Fall armyworms were artificially infested at the test site eight hours after the second application. Ten living caterpillars were added to each plot and were protected within a PVC ring. Plots were rated five days after treatement for percent damage by caterpillar feeding within the ring area.

[3] = system: Southern Chinch Bug (Blissus insularis, BLISIN); assay: Field trial against Southern chinch bug, nymph counts by vacuum sampling; settings: for % Control / % activity: alpha-cypermethrin 95, dinotefuran 600, combination 95 + 380 g ai/ha; for Nymph Counts (average number of Chinch bug nymphs per treatment per sample): 28 days after treatment, alpha-cypermethrin 95, dinotefuran 600, combination 95 + 380 g ai/hectare
Excerpt: as §1
Treatments were applied in a field with a natural infestation of Southern Chinch Bugs. The experiment was conducted with four replications, utilizing 3×3 m2 plots. The application was made in 813 liters per hectare spray volume.
The treatments consisted of an untreated check, and formulations containing either alpha-cypermethrin at a use rate of 95 grams ai/hectare, dinotefuran at 600 gram ai/hectare or a combination of alpha-cypermethrin and dinotefuran at 95+380 grams ai/hectare. Direct visual counts were made of larval chinch bugs in all stages of development after being mechanically vacuumed for 20 seconds from the surface of the turf. Chinch Bug abundance was measured using a commercially available lawn vacuum/blower combination machine by covering the vacuum (intake) orifice with mesh cloth and placing the intake on randomly within the turf plot and holding suction for […]. Samples were collected from each plot in an identical manner. After the sample was collected and the vacuum turned off, the captured contents of the mesh cloth were tapped into a 5-gallon plastic bucket for ease of counting of nymphs (at any instar).
The following average numbers of chinch bug nymphs were collected per sample per treatment 28 days after the insecticide applications were made.

[4] = system: Sod webworm (Herpetogramma phaeopteralis, PACYPH); assay: Field trial against sod webworm, larvae counts; settings: for % Control / % activity: alpha-cypermethrin 47.5, dinotefuran 600, combination 47.5 + 190 g ai/ha; for Sod Webworm Counts (average number of larvae per treatment per sample): 7 days after treatment, alpha-cypermethrin 47.5, dinotefuran 600, combination 47.5 + 190 g ai/hectare
Excerpt: as §1
Treatments were applied with a natural infestation of sod webworm. The experiment was conducted in four replications, utilizing 3×3 m2 plots. One application was made in 813 liters per hectare spray volume. po The treatments consisted of an untreated check, formulations of either alpha-cypermethrin at a use rate of 47.5 grams ai/hectare, dinotefuran at 600 gram ai/hectare or a combination of alpha-cypermethrin and dinotefuran at 47.5+190 grams ai/hectare.
Direct visual counts were made of sod webworm larvae in each plot 7 days after treatment.

[5] = system: Masked chafer grub, Cyclocephala spp. (CYCCSP); assay: Perennial ryegrass plot trial against masked chafer grubs (seeded adults), live grub counts; settings: for % Control / % activity: alpha-cypermethrin 95, dinotefuran 600, combination 95 + 380 g ai/ha; for Masked Chafer grub counts (average live grubs per treatment per sample): 4 days after treatment, alpha-cypermethrin 95, dinotefuran 600, combination 95 + 380 g ai/hectare
Experimental: as §1
The study was conducted on perennial ryegrass. Individual plots were 6 ft×6 ft and arranged in a randomized complete block design with 4 replications. Adult Cyclocephala spp. (masked chafer) were collected when active and immediately placed inside covered PVC rings on each plot. Approximately 50 adult masked chafers were added to each plot throughout the active adult stage. The rings were removed 24-36 hours after insecticide application. After the treatment, the plots were irrigated immediately with approximately 0.125″ of water. Treatments were applied in water equivalent to 813 liters/hectare. The number of live grub larvae was assessed 4 days after treatment by removing a two-foot strip of sod cut to a […] each plot (12 ft2 per plot).

[6] = system: Japanese beetle grub (Popillia japonica, POPIJA); assay: Turf plot trial against Japanese beetle grubs, grub counts in soil cores; settings: 85 DAT; for % Control / % activity: alpha-cypermethrin 95, dinotefuran 600, combination 95 + 380 g ai/ha; for Japanese Beetle Grub Counts (average per treatment per sample): alpha-cypermethrin 95, dinotefuran 600, combination 95 + 380 g ai/hectare
Experimental: as §1
The trial was conducted in plots consisting of a mix of Poa pratensis (~10%)—Lolium perenne (~60%)—Festuca arundinacea (~10%), and Agrostis stolonifera (<10%). Treatments were arranged in a randomized complete block design and replicated four times. Each replicate consisted of 3 arenas (~150 in^2). Each replicate was contained within a turfgrass plot measuring 9 ft^2. Treatments were applied in 813 liter/hectare spray volume.
To obtain consistent densities of white grub larvae, Japanese beetles (Popillia japonica) were captured in pheromone traps and seeded into the arenas to mate and oviposit.
20 males and 20 females were placed into 8 inch diameter PVC arenas (height=6 inch). The arena was driven 1 inch into the ground and fit with a mesh covering (324 openings/in2) to prevent beetles from escaping. After 3 days, the mesh coverings were removed, beetles removed, and 40 new beetles (20 males and 20 females) were placed into the arenas, followed by a third introduction. Nineteen days after the initial infestation date, the arenas were dismantled, and the turf was maintained as normal. Turf paint was used to mark the edges of turf where the arenas were located and reapplied as necessary.
White grub suppression was assessed 85 DAT by comparing the densities of grubs in treated and untreated plots. Three soil cores (total area=150 in2) were removed from each plot where the arenas were located using a large golf course cup cutter. Core soils were examined visually, by breaking the soil over a tray and looking for grubs (while in the field). The number of white grubs was pooled for the arenas in each replicate. Japanese beetle larvae present at time of evaluation (98.4%) were a mix of 2nd (42%) and 3rd (58%) instars.

[7] = system: Fall armyworm (Spodoptera frugiperda, LAPHFR); assay: Golf course trial against fall armyworm, soapy water flush counts; settings: for % Control / % activity: alpha-cypermethrin 95, dinotefuran 600, combination 95 + 380 g ai/ha; for Fall Armyworm worm Counts (average per treatment per sample, 1-sq-ft): 28 days after treatment, alpha-cypermethrin 95, dinotefuran 600, combination 95 + 380 g ai/hectare
Experimental: as §1
This trial was conducted at a golf course in an area planted with Hybrid bermudagrass, cv. ‘419’, with natural infestation of fall armyworm. The trial was laid out in 6 replications with each plot measuring 20×25 ft. Applications were made in a spray volume of 203 liters per hectare. The fall armyworms were about second or third instar when found. Fall armyworm density assessment was conducted as soapy water flush. About one gallon of soapy water was poured into an area marked with a 1-sq-ft PVC pipe square. Fall armyworms surfaced within 5 minutes and were counted in each 1-sq-ft area. Fall armyworm densities in a total of three squares (or 3 subsamples) were determined in each plot at each sampling data. Assessments were conducted at 28 days after treatment.

[8] = system: Black cut worm (Agrostis ypsilon, AGROYP); assay: Field bioassay with caged black cutworm larvae on putting green; settings: for % Control / % activity: alpha-cypermethrin 47.5, dinotefuran 600, combination 47.5 + 190 g ai/ha; for Black Cutworm Counts (average surviving larvae per treatment per sample, 10 larvae/plot): 19 days after treatment, alpha-cypermethrin 47.5, dinotefuran 600, combination 47.5 + 190 g ai/hectare
Experimental: as §1
The study was conducted on a creeping bentgrass/annual bluegrass putting green in a golf course. The study was a field bioassay where insect larvae were placed in cages at different intervals after applying insecticide treatments.
Applications were made to 4-foot by 6-foot plots replicated four times in 813 liter spray volume per hectare. Black cutworm (Agrostis ypsilon) larvae were caged in the turf at after the treatments were applied. Cages consisted of six-inch diameter metal cans. Two cages were inserted into each plot and five second-instar larvae were placed into each cage (total of 10 larvae/plot) before dusk. Window screen and a plastic louver were placed on top of the cages and held down with nails to secure the larvae. Larvae were caged for four days (96 hours) then a disclosing solution of 1 fl. oz. Joy Ultra dish soap in 1 gallon of water was used to flush surviving larvae 19 days after treatment.

[9] = 28 DAT, calculated from solo rates 95 and 600 g ai/ha

SMILES | % Control / % activity ([1]; 62 DAT) [%] | Masked Chafer Grub Counts (average per treatment per sample, per 1 sq. ft.) [1] | % Reduction / % activity ([2]; 5 DAT) [%] | Fall Armyworm damage (%) (average feeding damage) [2] | % Control / % activity ([3]; 28 DAT) [%] | Nymph Counts (average number of Chinch bug nymphs per treatment per sample) [3] | % Control / % activity ([4]; 7 DAT) [%] | Sod Webworm Counts (average number of larvae per treatment per sample) [4] | % Control / % activity ([5]; 4 DAT) [%] | Masked Chafer grub counts (average live grubs per treatment per sample) [5] | % Control / % activity [6] [%] | Japanese Beetle Grub Counts (average per treatment per sample) [6] | % Control / % activity ([7]; 28 DAT) [%] | Fall Armyworm worm Counts (average per treatment per sample, 1-sq-ft) [7] | % Control / % activity ([8]; 19 DAT) [%] | Black Cutworm Counts (average surviving larvae per treatment per sample, 10 larvae/plot) [8] | other results
CC1(C)C(C=C(Cl)Cl)C1C(=O)OC(C#N)c1cccc(Oc2ccccc2)c1 (racemic) [Alpha-cypermethrin, racemate comprising (R)-α-cyano-3-phenoxybenzyl (1S, 3S)-3-(2,2-dichlorovinyl)-2,2-dimethylcyclopropanecarboxy late; (S)-α-cyano-3-phenoxybenzyl (1R, 3R) (2,2-dichlorovinyl)-2,2-dimethylcyclopropanecarboxylate] | 91 | 0.25 | 94 | 1.25 | 81 | 6.0 | 57 | 2.5 | 18 | 18.5 | 0 | 2.25 | 57 | 1.39 | 80 | 1.75 | expected % activity (Colby) ([1]; 62 DAT, calculated from solo rates 95 and 600 g ai/ha): 97%; expected % activity (Colby) ([2]; 5 DAT, calculated from solo rates 95 and 600 g ai/ha): 98%; expected % activity (Colby) [3, 9]: 96%; expected % activity (Colby) ([4]; 7 DAT, calculated from solo rates 47.5 and 600 g ai/ha): 87%; expected % activity (Colby) ([5]; 4 DAT, calculated from solo rates 95 and 600 g ai/ha): 29%; expected % activity (Colby) ([6]; calculated from solo rates 95 and 600 g ai/ha): 0%; expected % activity (Colby) [7, 9]: 58%; expected % activity (Colby) ([8]; 19 DAT, calculated from solo rates 47.5 and 600 g ai/ha): 83%
CNC(=N[N+](=O)[O-])NCC1CCOC1 (racemic) [Dinotefuran, (RS)-1-methyl-2-nitro-3-(tetrahydro-3-furylmethyl) guanidine] | 64 | 1.00 | 75 | 5.00 | 81 | 5.8 | 60 | 2.3 | 13 | 19.5 | 0 | 2.00 | 2 | 3.17 | 17 | 7.25 | 

Reference: patent US12721343B2, “Methods and uses of a mixture comprising alpha-cypermethrin and dinotefuran for controlling invertebrate pests in t” (BASF AGRO B.V., priority 2020, dated 2026)
